Source: PubChem BioAssay (NCI)
“And” between values parts separate entries of the source, which are not always exact repeats. Equal values may be shown once.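 Step 1: Grow cells in 96-well plates. Step 2: Expose to compound for 48 hours at 5 concentrations. Step 3: Interpolate endpoints linearly; if unreached, use highest concentration. The concentration for 50% growth inhibition is given as GI50. At the TGI there is no net growth.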

Tests used:
Assay in all cases: NCI tumour cell line growth inhibition, 48 h
RXF-631 renal = system: RXF-631 renal
HOP-18 NSCLC = system: HOP-18 NSCLC
P388 leukemia = system: P388 leukemia
SN12K1 renal = system: SN12K1 renal
P388/ADR leukemia = system: P388/ADR leukemia

| Compound | TGI (RXF-631 renal) [µM] | TGI (HOP-18 NSCLC) [µM] | TGI (P388 leukemia) | TGI (SN12K1 renal) | GI50 (HOP-18 NSCLC) | TGI (P388/ADR leukemia) [µM] |
| --- | --- | --- | --- | --- | --- | --- |
| CCN(CC)CCNc1ccc2ncn3c4cc(=O)ccc4c(O)c1c23 | 12.5 |  |  |  |  |  |
| c1ccc(CCn2cncn2)cc1 | > 100 |  |  |  |  |  |
| CC(=O)C1(O)Cc2c(O)c3c(c(O)c2C(OC2CC(N)C(O)C(C)O2)C1)C(=O)c1ccccc1C3=O (configuration not stated) |  | 0.0869 |  |  |  |  |
| CCCCCCCCCCSCC(CO)NC(=O)/C=C/c1c(C)[nH]c(=O)[nH]c1=O (configuration not stated) |  | > 50 | 7.15 µM and 6.31 µM | > 35.6 µM and 19.9 µM | 2.91 µM and > 26.8 µM | > 50 |
| CN(CCO)/N=N/c1[nH]ncc1C(N)=O |  | > 100 | > 100 µM | > 100 µM |  | > 100 |
